Measurements from patent US20250263408A1 (Uniquest Pty Ltd, priority 2022, published 2025).
pEC50: −log10 of the molar value.

Experiments:
[1] = tested on: Ba/F3-WT (wild type) cells; assay: Ba/F3 Proliferation Assay, Ba/F3-WT (wild type) cells with mIL-3 (Resazurin); format: cell-based; conditions: Mus musculus, BaF3, 48 h, Ba/F3-WT cells +mIL-3, 48-hour incubation
Ba/F3-Syk cells = molecular target: T1, Ba/F3-Syk cells (Homo sapiens, UniProt P43405); assay: Ba/F3 Proliferation Assay, Ba/F3-Syk cells (Resazurin); format: cell-based; conditions: 48-hour incubation
T1 construct: fused on or other part: Possible but unprinted fusion partner: TEL (ETV6), the usual partner for Ba/F3 lines transformed by Syk; Nothing on a partner is printed

Row | Compound | pEC50 [1] | pEC50 (Ba/F3-Syk cells)
1 | CC(C)n1cc(-c2cc3ncccc3c(OC[C@@H]3CNCC(C)(C)CO3)n2)cn1 [Compound 10.12, 5-{[(2S)-6,6-dimethyl-1,4-oxazepan-2-yl]methoxy}-7-[1-(propan-2-yl)-1H-pyrazol-4-yl]-1,6-naphthyridine] | 5.72 | 7.06
2 | CC[C@@]1(COc2nc(-c3cnn(C(C)(C)C)c3)cc3ncccc23)CNCCO1 [Compound 10.14, 7-(1-tert-butyl-1H-pyrazol-4-yl)-5-{[(2S)-2-ethylmorpholin-2-yl]methoxy}-1,6-naphthyridine] | 5.59 | 6.55
3 | CC[C@@]1(COc2nc(-c3cnn(C(C)C)c3)cc3ncccc23)CNCCO1 [Compound 10.16, 5-{[(2S)-2-ethylmorpholin-2-yl]methoxy}-7-[1-(propan-2-yl)-1H-pyrazol-4-yl]-1,6-naphthyridine] | 5.92 | 6.59
4 | C1=C(c2cc(OC[C@@H]3CNCCO3)c3cccnc3c2)CCC1 [Compound 11.1, 7-(cyclopent-1-en-1-yl)-5-{[(2S)-morpholin-2-yl]methoxy}quinoline] | < 5.00 | 5.87
5 | CC1(C)CNC[C@@H](COc2cc(-c3cnn4c3CCCC4)cc3ncccc23)O1 [Compound 11.2, 5-{[(2S)-6,6-dimethylmorpholin-2-yl]methoxy}-7-{4H,5H,6H,7H-pyrazolo[1,5-a]pyridin-3-yl}quinoline] | 5.07 | 6.20
6 | CC(C)n1cc(-c2cc(O[C@H](C)[C@@H]3CNCC(C)(C)O3)c3cccnc3c2)cn1 [Compound 11.3, 5-[(1R)-1-[(2S)-6,6-dimethylmorpholin-2-yl]ethoxy]-7-[1-(propan-2-yl)-1H-pyrazol-4-yl]quinoline] | 6.25 | 7.43
7 | C[C@@H](Oc1cc(-c2cnn(C)c2)cc2ncccc12)[C@@H]1CNCC(C)(C)O1 [Compound 11.4, 5-[(1R)-1-[(2S)-6,6-dimethylmorpholin-2-yl]ethoxy]-7-(1-methyl-1H-pyrazol-4-yl)quinoline] | 6.13 | 7.16
8 | C[C@@H](Oc1cc(-c2ccn(C)c2)cc2ncccc12)[C@@H]1CNCC(C)(C)O1 [Compound 11.5, 5-[(1R)-1-[(2S)-6,6-dimethylmorpholin-2-yl]ethoxy]-7-(1-methyl-1H-pyrrol-3-yl)quinoline] | 5.73 | 7.04
9 | Cn1ccc(-c2cc(OC[C@@H]3CNCC4(CCC4)O3)c3cccnc3c2)c1 [Compound 11.6, 7-(1-methyl-1H-pyrrol-3-yl)-5-{[(6S)-5-oxa-8-azaspiro[3.5]nonan-6-yl]methoxy}quinoline] | 5.75 | 7.48
10 | Cn1cc(-c2cc(OC[C@@H]3CNCC4(CCC4)O3)c3cccnc3c2)cn1 [Compound 11.7, 7-(1-methyl-1H-pyrazol-4-yl)-5-{[(6S)-5-oxa-8-azaspiro[3.5]nonan-6-yl]methoxy}quinoline] | 5.97 | 7.33
11 | CC(C)(C)n1cc(-c2cc(OC[C@@H]3CNCC4(CCC4)O3)c3cccnc3c2)cn1 [Compound 11.9, 7-(1-tert-butyl-1H-pyrazol-4-yl)-5-{[(6S)-5-oxa-8-azaspiro[3.5]nonan-6-yl]methoxy}quinoline] | 5.80 | 8.00
12 | C[C@@H](Oc1cc(-c2ccn(C)c2)cc2ncccc12)[C@@H]1CNCCO1 [Compound 11.10, 7-(1-methyl-1H-pyrrol-3-yl)-5-[(1R)-1-[(2S)-morpholin-2-yl]ethoxy]quinoline] | 5.77 | 6.92
13 | Cn1cc(-c2cc(OC[C@@H]3CNCC4(CC4)O3)c3nccnc3c2)cn1 [Compound 12.1, 7-(1-methyl-1H-pyrazol-4-yl)-5-{[(5S)-4-oxa-7-azaspiro[2.5]octan-5-yl]methoxy}quinoxaline] | < 5.00 | 6.67
14 | CC(C)n1cc(-c2cc(OC[C@@H]3CNCC4(CC4)O3)c3nccnc3c2)cn1 [Compound 12.2, 5-{[(5S)-4-oxa-7-azaspiro[2.5]octan-5-yl]methoxy}-7-[1-(propan-2-yl)-1H-pyrazol-4-yl]quinoxaline] | 5.79 | 7.54
15 | CC(C)(C)n1cc(-c2cc(OC[C@@H]3CNCC4(CC4)O3)c3nccnc3c2)cn1 [Compound 12.3, 7-(1-tert-butyl-1H-pyrazol-4-yl)-5-{[(5S)-4-oxa-7-azaspiro[2.5]octan-5-yl]methoxy}quinoxaline] | 5.89 | 7.56
16 | Cn1ccc(-c2cc(OC[C@@H]3CNCC4(CC4)O3)c3nccnc3c2)c1 [Compound 12.4, 7-(1-methyl-1H-pyrrol-3-yl)-5-{[(5S)-4-oxa-7-azaspiro[2.5]octan-5-yl]methoxy}quinoxaline] | 5.51 | 7.56
17 | C[C@@H]1CNC[C@@H](COc2cc(-c3cnn(C)c3)cc3nccnc23)O1 [Compound 12.5, 7-(1-methyl-1H-pyrazol-4-yl)-5-{[(2S,6R)-6-methylmorpholin-2-yl]methoxy}quinoxaline] | 5.89 | 7.29

Row | Compound | pEC50 [1] | pEC50 (Ba/F3-Syk cells)
18 | CC(C)n1cc(-c2cc(OC[C@@H]3CNC[C@@H](C)O3)c3nccnc3c2)cn1 [Compound 12.6, 5-{[(2S,6R)-6-methylmorpholin-2-yl]methoxy}-7-[1-(propan-2-yl)-1H-pyrazol-4-yl]quinoxaline] | 6.32 | 8.00
19 | C[C@@H]1CNC[C@@H](COc2cc(-c3cnn(C(C)(C)C)c3)cc3nccnc23)O1 [Compound 12.7, 7-(1-tert-butyl-1H-pyrazol-4-yl)-5-{[(2S,6R)-6-methylmorpholin-2-yl]methoxy}quinoxaline] | 6.00 | 8.04
20 | c1cnc2cc(-c3ccns3)nc(OC[C@@H]3CNCCO3)c2c1 [Compound 13.1, 5-{[(2S)-morpholin-2-yl]methoxy}-7-(1,2-thiazol-5-yl)-1,6-naphthyridine] | 5.20 | 6.23
21 | Cn1ccc(-c2cc3ncccc3c(O[C@@H]([C@@H]3CNCCO3)C(F)(F)F)n2)c1 [Compound 13.3, 7-(1-methyl-1H-pyrrol-3-yl)-5-[(1S)-2,2,2-trifluoro-1-[(2S)-morpholin-2-yl]ethoxy]-1,6-naphthyridine] | < 5.00 | 5.92
22 | CC1(C)CCO[C@H](COc2nc(-c3cnn(C(C)(C)C)c3)cc3ncccc23)CN1 [Compound 13.4, 7-(1-tert-butyl-1H-pyrazol-4-yl)-5-{[(2S)-5,5-dimethyl-1,4-oxazepan-2-yl]methoxy}-1,6-naphthyridine] | 5.24 | 6.67
23 | C[C@@H]1NCCO[C@@H]1COc1nc(-c2ccn(C)c2)cc2ncccc12 [Compound 13.5, 7-(1-methyl-1H-pyrrol-3-yl)-5-{[(2S,3S)-3-methylmorpholin-2-yl]methoxy}-1,6-naphthyridine] | 5.20 | 7.29
24 | C[C@@H]1NCCO[C@@H]1COc1nc(-c2cnn(C(C)(C)C)c2)cc2ncccc12 [Compound 13.6, 7-(1-tert-butyl-1H-pyrazol-4-yl)-5-{[(2S,3S)-3-methylmorpholin-2-yl]methoxy}-1,6-naphthyridine] | 5.26 | 7.44
25 | C[C@H](Oc1cc(-c2cnn(C(C)(C)C)c2)cc2ncccc12)[C@@H]1CNCCO1 [Compound 14.1, 7-(1-tert-butyl-1H-pyrazol-4-yl)-5-[(1S)-1-[(2S)-morpholin-2-yl]ethoxy]quinoline] | < 5.00 | 5.87
26 | C[C@@H](Oc1cc(-c2cnn(C(C)(C)C)c2)cc2ncccc12)[C@@H]1CNCCO1 [Compound 14.2, 7-(1-tert-butyl-1H-pyrazol-4-yl)-5-[(1R)-1-[(2S)-morpholin-2-yl]ethoxy]quinoline] | 5.73 | 7.09
27 | FC(F)c1cc(-c2cc(OC[C@@H]3CNCCO3)c3cccnc3c2)cs1 [Compound 14.3, 7-[5-(difluoromethyl)thiophen-3-yl]-5-{[(2S)-morpholin-2-yl]methoxy}quinoline] | 5.72 | 6.75
28 | FC(F)c1csc(-c2cc(OC[C@@H]3CNCCO3)c3cccnc3c2)c1 [Compound 14.4, 7-[4-(difluoromethyl)thiophen-2-yl]-5-{[(2S)-morpholin-2-yl]methoxy}quinoline] | 5.72 | 6.71
29 | CC(C)(C)c1ccc(-c2cc(OC[C@@H]3CNCCO3)c3cccnc3c2)s1 [Compound 14.5, 7-(5-tert-butylthiophen-2-yl)-5-{[(2S)-morpholin-2-yl]methoxy}quinoline] | 5.92 | 6.37
30 | Cc1ccnc2cc(-c3cnn(C(C)(C)C)c3)cc(OC[C@@H]3CNCC(C)(C)O3)c12 [Compound 14.9, 7-(1-tert-butyl-1H-pyrazol-4-yl)-5-{[(2S)-6,6-dimethylmorpholin-2-yl]methoxy}-4-methylquinoline] | 5.91 | 8.23
31 | Cc1cnc2cc(-c3cnn(C(C)C)c3)nc(OC[C@@H]3CNCC(C)(C)O3)c2c1 [Compound 14.10, 5-{[(2S)-6,6-dimethylmorpholin-2-yl]methoxy}-3-methyl-7-[1-(propan-2-yl)-1H-pyrazol-4-yl]-1,6-naphthyridine] | 5.97 | 7.35
32 | COCCn1ccc(-c2cc(OC[C@@H]3CNCC(C)(C)O3)c3c(C)ccnc3c2)c1 [Compound 14.11, 5-{[(2S)-6,6-dimethylmorpholin-2-yl]methoxy}-7-[1-(2-methoxyethyl)-1H-pyrrol-3-yl]-4-methylquinoline] | 6.10 | 8.21
33 | Cc1ccnc2cc(-c3ccn(C4COC4)c3)cc(OC[C@@H]3CNCC(C)(C)O3)c12 [Compound 14.12, 5-{[(2S)-6,6-dimethylmorpholin-2-yl]methoxy}-4-methyl-7-[1-(oxetan-3-yl)-1H-pyrrol-3-yl]quinoline] | 6.06 | 8.26
34 | CC1(C)CNC[C@@H](COc2nc(-c3cnn(C(C)(C)C)c3)cc3nccc(C(F)(F)F)c23)O1 [Compound 14.13, 7-(1-tert-butyl-1H-pyrazol-4-yl)-5-{[(2S)-6,6-dimethylmorpholin-2-yl]methoxy}-4-(trifluoromethyl)-1,6-naphthyridine] | 6.06 | 7.70
